Experimental data as given in US12156917B2, “CNP prodrugs with carrier attachment at the ring moiety” (ASCENDIS PHARMA GROWTH DISORDERS A/S, priority 2016, dated 2024).
Bridge positions count the residues as written; N and C are the ends. Ends that are not written are not given here.

How the values were obtained:
[1] = doses up to 15 μg/kg, healthy volunteers; cited from earlier work
[2] = in vivo; cited from earlier work
Crl:CD1(ICR) mice = assay: Evaluation of cardiovascular effects in the conscious telemetered mouse (subcutaneous administration); assay type: in vivo
Method: Male Crl:CD1(ICR) mice (age range 8-13 weeks and body weight range 27.3-35.6 g at start of dosing) were surgically implanted with a TA11PA-C10 telemetry transmitter (Data Sciences International (DSI)) in the carotid artery. The body of the transmitter was placed subcutaneously in the lateral flank of the mouse. The mice were dosed subcutaneously in a latin square crossover design with at least 72 hours between dosing occasions. […] At least four mice were included at each dose level. Blood pressure (systolic (SAP), diastolic (DAP) and mean (MAP) and heart rate (HR, derived from blood pressure), were recorded using a digital data capture system linked with a DSI™ Ponemah data acquisition and analysis system. The capture system allowed recording of the cardiovascular parameters whilst the mice were in individual cages. On the day of each test session the animals were weighed and a predose recording was performed for at least 60 min prior to dosing. Each mouse was returned to the home cage and the cardiovascular parameters were recorded for approximately 48 hours postdose. Blood pressure and HR were reported at the following time points: −30, −20, −10, 5, 15 and 30 min postdose and 1, 2, 6, 12, 18, 24, 30, 36, 42 and 48 hours postdose. Each time point was presented as the average value of five minute's recording prior to the time point. The monitoring period was selected to cover exposure to the test items both prior to and after Tnax.

Compound | blood pressure effect [1] | half-life [2] [min] | MAP predose (mean±SD) (Crl:CD1(ICR) mice; predose, n = 4) [mmHg] | heart rate (HR) (Crl:CD1(ICR) mice; sc, 800 μg CNP-38 eq/kg, up to 48 hours postdose) | MAP 5 min post dose (mean±SD) (Crl:CD1(ICR) mice; sc, 800 μg CNP-38 eq/kg, n = 4) [mmHg] | MAP 15 min post dose (mean±SD) (Crl:CD1(ICR) mice; sc, 800 μg CNP-38 eq/kg, n = 4) [mmHg] | MAP 30 min post dose (mean±SD) (Crl:CD1(ICR) mice; sc, 800 μg CNP-38 eq/kg, n = 4) [mmHg]
BMN-111: modified recombinant human C-type Natriuretic Peptide; 17 amino acids added to form a 39 amino acid CNP analog (PGQEHPNARKYKGANKKGLSKGCFGLKLDRIGSMSGLGC; disulfide 23-39; chains of the INN, looked up) | mild hypotension | 20 | – | – | – | – | –
CC[C@H](C)[C@@H]1NC(=O)[C@H](CCCNC(=N)N)NC(=O)[C@H](CC(=O)O)NC(=O)[C@H](CC(C)C)NC(=O)[C@H](CCCCN)NC(=O)[C@H](CC(C)C)NC(=O)CNC(=O)[C@H](Cc2ccccc2)NC(=O)[C@@H](NC(=O)CNC(=O)[C@H](CCCCN)NC(=O)[C@H](CO)NC(=O)[C@H](CC(C)C)NC(=O)CNC(=O)[C@H](CCCCN)NC(=O)[C@H](CCCCN)NC(=O)[C@H](CC(N)=O)NC(=O)[C@H](C)NC(=O)CNC(=O)[C@H](CCCCN)NC(=O)[C@H](Cc2ccc(O)cc2)NC(=O)[C@H](CCCCN)NC(=O)[C@H](CCCNC(=N)N)NC(=O)[C@H](C)NC(=O)[C@H](CC(N)=O)NC(=O)[C@@H]2CCCN2C(=O)[C@H](Cc2c[nH]cn2)NC(=O)[C@H](CCC(=O)O)NC(=O)[C@H](CCC(N)=O)NC(=O)[C@@H](N)CC(C)C)CSSC[C@@H](C(=O)O)NC(=O)CNC(=O)[C@H](CC(C)C)NC(=O)CNC(=O)[C@H](CO)NC(=O)[C@H](CCSC)NC(=O)[C@H](CO)NC(=O)CNC1=O [CNP-38] | – | – | 106.8 ± 13.4 | not impacted | 102.0 ± 7.5 | 89.5 ± 29.4 | 99.5 ± 25.2
